Where a SMILES comes first, the peptide text is derived from it. [ ]: non-standard residue; d: D form.
Assays:
[1] = Crossing of blood brain barrier and cell membranes (data not shown); conditions: peptide alone
[2] = tested on: SH-SY5Y cells; assay: Toxicity of peptides on differentiated SH-SY5Y cells (MTT test); type: cell-based, human; conditions: 24 h; for toxicity for living cells: up to 20 μM, mean of three independent assays
Protocol: Figure 2 Analysis of the effects of Aβ1-6WT(D), Aβ1-6A2V(D) and Aβ1-6A2VTAT(D) on neurotoxicity in cell models. SH-SY5Y cells were differentiated with 10 μM retinoic acid. […] Comparison of cell viability was performed by Student t-test.
Toxicity studies with Aβ1-6WT(D), Aβ1-6A2V(D) or Aβ1-6A2VTAT(D) and the short peptides’ ability to inhibit the toxicity induced by Aβ1-42WT in SH-SY5Y cell cultures were analyzed following previously described protocols. Each experiment was performed in triplicate; the data provided were obtained as the mean of three independent assays.

[3] = tested on: amyloid plaques; assay: Binding of biotinylated peptides to amyloid in CRND8 mouse brain sections; conditions: for staining of amyloid plaques in transgenic mouse brain: CRND8 transgenic brain sections, avidin-biotin complex / DAB
Protocol: It was tested on brain sections of transgenic and control mice of CRND8 strain[44]. To unequivocally identify the fragment(s) of the peptide responsible for binding to plaques we used three separate segments: Biot-Aβ1-6WT(D), Biot-Aβ1-6A2V(D) and Biot-TAT(D). Seven-micrometre thick brain sections fixed in Carnoy and embedded in paraffin were used for staining.

[4] = biological target: T1, Aβ1-42WT (Homo sapiens, UniProt P05067); assay: Atomic force microscopy of Aβ1-42WT oligomerization; type: biochemical; conditions: Aβ1-42WT alone, 100 μM, phosphate buffer 50 mM pH 7.4, 4 °C, 24 h, AFM
T1 construct: Aβ1-42WT oligomers were formed following incubation of Aβ1-42WT at a final concentration of 100 μM; made in house; host or cells: chemical synthesis (solid-phase Fmoc), no expression host
Protocol: In polarized-light and EM studies, both peptides were used at 0.125 mM, molar ratio = 1:1 or 1:4 respectively, with 20 days incubation. […] E,F: Representative Tapping mode of AFM images as determined by amplitude error data of Aβ1-42WT oligomers. Aβ1-42WT peptide 100 μM in phosphate buffer 50 mM, pH 7.4 was incubated at 4 °C for 24 h alone (E) (Z range: -10/ + 10 mV) or in presence of Aβ1-6A2VTAT(D) (F) (Z range: -10/ + 25 mV). The molar ratio of Aβ1-42WT to Aβ1-6A2VTAT(D) was 1:4. Scale bar: 1 μm, inset: 200 nm. (G,H): height plot profiles obtained along different lines traced on the topographic AFM images.
Aβ1-42WT oligomers were formed following incubation of Aβ1-42WT at a final concentration of 100 μM in phosphate buffer 50 mM, pH 7.4 at 4 °C for 24 h, alone or in presence of Aβ1-6A2VTAT(D), at 1:4 molar ratio. Sample solutions were diluted to a final concentration of 10 μM of Aβ1-42WT with phosphate buffer and 50 μl of each solution was immediately added onto freshly cleaved mica at room temperature for 2 minutes. Samples were washed and dried under gentle nitrogen flow. AFM analyses were carried out on a Multimode AFM with a Nanoscope V system (Veeco/Digital Instruments). AFM images were analysed using the Scanning Probe Image Processor data analysis package. All the topographic patterns and SPIP characterization were verified via additional measurements on a minimum of five different, well separated areas.

[5] = tested on: APP; conditions: enhanced β-secretase cleavage of APP, increased C99; cited from earlier work
Source text: This is consistent with our findings, indicating a shift in APP processing towards the amyloidogenic processing i ...

T1 sequence (P05067 672-713 limits assumed): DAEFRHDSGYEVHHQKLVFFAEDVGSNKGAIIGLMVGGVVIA

CC(C)[C@@H](NC(=O)[C@H](N)CC(=O)O)C(=O)N[C@H](CCC(=O)O)C(=O)N[C@H](Cc1ccccc1)C(=O)N[C@H](CCCNC(=N)N)C(=O)N[C@H](Cc1c[nH]cn1)C(=O)O [Aβ1-6A2V(D)] (H-[dD][dV][dE][dF][dR][dH]-OH)
crossing of blood brain barrier and cell membranes [1]: does not efficiently cross either the blood brain barrier (BBB) or cell membranes
toxicity for living cells [2]: neither is toxic for living cells even at high concentrations

C[C@@H](NC(=O)[C@H](N)CC(=O)O)C(=O)N[C@H](CCC(=O)O)C(=O)N[C@H](Cc1ccccc1)C(=O)N[C@H](CCCNC(=N)N)C(=O)N[C@H](Cc1c[nH]cn1)C(=O)O [Aβ1-6WT(D)] (H-[dD][dA][dE][dF][dR][dH]-OH)
toxicity for living cells [2]: neither is toxic for living cells even at high concentrations

Gly-Arg-Lys-Lys-Arg-Arg-Gln-Arg-Arg-Arg [Biot-TAT(D), biotinylated form of TAT(D), reference compound]
staining of amyloid plaques in transgenic mouse brain [3]: strongly stained amyloid deposits

H-Asp-ALA/VAL-Glu-Phe-Arg-His-Asp-Ser-Gly-Tyr-Glu-Val-His-His-Gln-Lys-Val-Phe-Phe-Ala-Glu-Asp-Val-Gly-Ala-Ile-Ile-Gly-Leu-Met-Val-Gly-Gly-Val-Val—OH [Aβ1-42WT, synthetic wild-type full-length Amyloid-β 1-42, reference compound]
reduction of cell viability [2]: 35%
diameter of small oligomers (~70%) [4]: 6-20 nm

H-Asp-ALA/VAL-Glu-Phe-Arg-His-Gly-Gly-Gly-Gly-Gly-Arg-Lys-Lys-Arg-Arg-Gln-Arg-Arg-Arg [Biot-Aβ1-6WTTAT(D), Aβ1-6WTTAT(D) containing a biotinylated residue at the C-terminus]
staining of amyloid plaques in transgenic mouse brain [3]: able to bind and therefore stain the plaques
staining in brain slices of non-transgenic control mice ([3]; control animals devoid of amyloid plaques, data not shown): unable to produce any staining

H-Asp-ALA/VAL-Glu-Phe-Arg-His-OH [Biot-Aβ1-6A2V(D), Aβ1-6A2V(D) containing a biotinylated residue at the C-terminus]
staining of amyloid plaques in transgenic mouse brain [3]: no immunostaining of amyloid was detected

B1: TAT: HIV-1 Tat of the cited studies (protein, UniProt P04608 1-86, looked up)
Protein Tat: MEPVDPRLEPWKHPGSQPKTACTNCYCKKCCFHCQVCFITKALGISYGRKKRRQRRRAHQNSQTHQASLSKQPTSQPRGDPTGPKE
fold higher levels of Aβ42 [5]: 5.5 fold

— paper PMC4750079, “Tackling amyloidogenesis in Alzheimer’s disease with A2V variants of Amyloid-β” (Scientific Reports, 2016)
